Experimental data from US8835438B2, “Method of treating memory/learning dysfunctions caused by schizophrenia with lurasidone” (Sumitomo Dainippon Pharma Co., Ltd., priority 2004, dated 2014).
Entries after “also recorded” stand apart in the source; their conditions may differ. Marks after values point to notes of the source that are not given here.

Tests used:
[1] = tested on: MK-801-induced memory/learning dysfunctions; test: Step-through passive avoidance response test, MK-801-induced memory/learning dysfunctions; assay type: in vivo, Wistar male rats
Protocol: Wistar male rats (7 weeks old) were used. […] Serotonin 5-HT 1A receptor antagonist WAY-100635 or noradrenaline a2 receptor antagonist 1-PP was dissolved in a physiological saline solution (Otsuka Pharmaceutical Co., Ltd.) and used as a test compound. As an NMDA type receptor antagonist, MK-801 hydrogen maleate (SIGMA-ALDRICH M-107) was dissolved in a physiological saline solution (Otsuka Pharmaceutical Co., Ltd.). […] For the evaluation of state-dependency of MC-801, MK-801 was administered before the training session, and a physiological saline solution was administered before the testing session instead. The dosing value thereof was 5 ml/kg for each.
The step-through type passive avoidance response test was carried out in the following manners with the use of an apparatus consisting of a light-dark box, a slide door dividing the light-dark box and a shock generator (manufactured by O'hara & Co., Ltd., PA-2030A, PA-3001A) as an experimental apparatus. Namely, on Day 1 of the experiment, after a test compound and MK-801 were administered, the rats were put into the light box of the experimental apparatus where the back of each rat was directed to the dark box. Then, 10 seconds later, a slide door set at the border between the dark box and the light box was opened. Due to the habits of the rats, once the rats entered into the dark box, the slide door was quickly closed. At three seconds after entering into the dark box, an electroconvulsive shock ([…], for 3 seconds) was given to the rats. The period between the time just after the slide door was opened and the time at which the rats entered into the dark box was measured as a step-through latency. […] On Day 2 of the experiment, the testing session was carried out about 24 hours after the training session. Thirty minutes prior to the testing session, MK-801 or a vehicle thereof, i.e., a physiological saline solution, was subcutaneously administered to the rats. The procedures of the testing session were carried out in the same manner to the training session except that no electroconvulsive shock was given. The step-through latency at the testing session was measured up to 300 seconds, and the step-through latency over 300 seconds was regarded as 300 seconds. […] The statistical analysis of the % of animals avoiding was done by x^2 test with Bonferroni's correction. The animals were used in a group of 10 to 25 animals per group, and the data was expressed by percentage.

[2] = tested on: memory/learning dysfunctions in the passive avoidance response; test: Passive avoidance response test, drug administered alone without MK-801; assay type: in vivo, Wistar male rats; details: drug alone without MK-801, passive avoidance response, rats
Protocol: Then, 10 seconds later, a slide door set at the border between the dark box and the light box was opened. Due to the habits of the rats, once the rats entered into the dark box, the slide door was quickly closed. At three seconds after entering into the dark box, an electroconvulsive shock ([…], for 3 seconds) was given to the rats. The period between the time just after the slide door was opened and the time at which the rats entered into the dark box was measured as a step-through latency. […] On Day 2 of the experiment, the testing session was carried out about 24 hours after the training session. […] The procedures of the testing session were carried out in the same manner to the training session except that no electroconvulsive shock was given. The step-through latency at the testing session was measured up to 300 seconds, and the step-through latency over 300 seconds was regarded as 300 seconds. […] The statistical analysis of the % of animals avoiding was done by x^2 test with Bonferroni's correction. The animals were used in a group of 10 to 25 animals per group, and the data was expressed by percentage.

[3] = tested on: methamphetamine-induced hyperponesis; details: rats; reflects anti-psychotic activity; cited from earlier work
[4] = MK-801 administered only in the training session
[5] = MK-801 prior to both training and testing sessions, MK-801 + drug 1 mg/kg p.o.
[6] = MK-801 prior to both training and testing sessions, MK-801 + drug 3 mg/kg p.o.
[7] = MK-801 prior to training session only, MK-801 + drug 3 mg/kg p.o.
[8] = MK-801 administered in both training and testing sessions
[9] = MK-801 prior to both training and testing sessions, MK-801 + drug 0.3 mg/kg p.o.
[10] = MK-801 prior to both training and testing sessions, MK-801 + drug 10 mg/kg p.o.
[11] = MK-801 prior to both training and testing sessions, MK-801 + drug 0.1 mg/kg p.o.

Row | Structure (SMILES) | % of animals avoiding [1, 5] | % of animals avoiding [1, 6] | Minimum dose to induce memory dysfunction by single application [2] | drug efficacy on memory dysfunction (in words) [1, 8] | % of animals avoiding [1, 9] | % of animals avoiding [1, 10] | further results
1 | Cl.Cl.c1cnc(N2CCNCC2)nc1 [1-PP, 1-(2-pyrimidyl)piperazine dihydrochloride] | 47* % | 67* % | – | – | – | – | drug efficacy on memory dysfunction (in words) ([1]; MK-801 administered in both training and testing sessions, dihydrochloride): memory/learning improving efficacy is recognized; also recorded: a significant improving activity was observed; drug efficacy on memory dysfunction (in words) [1, 4]: no drug efficacy; % of animals avoiding [1, 7]: 8%
2 | O=C1CCc2ccc(OCCCCN3CCN(c4cccc(Cl)c4Cl)CC3)cc2N1 [Aripiprazole, aripiprazole] | 16% | 16% | 10 mg/kg, p.o | no drug efficacy was observed | – | – | –
3 | CN1CCN(C2=Nc3cc(Cl)ccc3Nc3ccccc32)CC1 [Clozapine, clozapine] | 36* % | 20% | 10 mg/kg, p.o | – | 44* % | 10% | –
4 | O=C(CCCN1CCC(O)(c2ccc(Cl)cc2)CC1)c1ccc(F)cc1 [Haloperidol] | 15% | 10% | 10 mg/kg, p.o | no drug efficacy was observed | 5% | – | % of animals avoiding [1, 11]: 0%
5 | O=C1[C@@H]2[C@H]3CC[C@H](C3)[C@@H]2C(=O)N1C[C@@H]1CCCC[C@H]1CN1CCN(c2nsc3ccccc23)CC1 [Lurasidone, lurasidone] | 35* % | 75* % | >30 mg/kg, p.o | memory/learning improving efficacy is recognized; also recorded: a significant improving activity was observed | 40* % | 70* % | drug efficacy on memory dysfunction (in words) [1, 4]: no drug efficacy; % of animals avoiding ([1]; MK-801 prior to training session only, MK-801 + drug 0.3 mg/kg p.o.): 20%; % of animals avoiding ([1]; MK-801 prior to training session only, MK-801 + drug 1 mg/kg p.o.): 20%; % of animals avoiding [1, 7]: 30%; % of animals avoiding ([1]; MK-801 prior to training session only, MK-801 + drug 10 mg/kg p.o.): 20%
6 | C[C@]12N[C@H](Cc3ccccc31)c1ccccc12 [MK-801] | – | – | – | – | – | – | % of animals avoiding, group treated with MK-801 ([1]; MK-801 0.05 mg/kg s.c. alone, administered prior to training session only): 0%; step-through latency (in words) ([1]; MK-801 before training session and saline before testing session, compared with MK-801 in both sessions): nearly equal decrease in the step-through latency
7 | Cc1cc2c(s1)Nc1ccccc1N=C2N1CCN(C)CC1 [Olanzapine, olanzapine] | 20% | 20% | – | – | 15% | 10% | –
8 | OCCOCCN1CCN(C2=Nc3ccccc3Sc3ccccc32)CC1 [Quetiapine, quetiapine] | 20% | 30% | 30 mg/kg, p.o | memory/learning improving efficacy is recognized; also recorded: a significant improving activity was observed | 10% | 50* % | dose to inhibit 50% of methamphetamine-induced hyperponesis (ED50) [3]: about 100 mg/kg, p.o.
9 | Cc1nc2n(c(=O)c1CCN1CCC(c3noc4cc(F)ccc34)CC1)CCCC2 [Risperidone, risperidone] | 28% | 10% | 3 mg/kg, p.o | memory/learning improving efficacy is recognized | 20% | – | % of animals avoiding [1, 11]: 20%
10 | COc1ccccc1N1CCN(CCN(C(=O)C2CCCCC2)c2ccccn2)CC1 [WAY-1000635] | 40* % | 30% | – | – | 30% | – | drug efficacy on memory dysfunction (in words) ([1]; MK-801 administered in both training and testing sessions, listed as WAY-100635): a significant improving activity was observed; drug efficacy on memory dysfunction (in words) ([1]; MK-801 administered in both training and testing sessions, listed as serotonin 5-HT 1A receptor antagonist): memory/learning improving efficacy is recognized
